Test results published in patent US7951814B2, “Quinazolinedione derivatives as TRPA1 modulators” (Glenmark Pharmaceuticals, S.A., priority 2008, dated 2011).

Molecular target: T1, Human TRPA1 expressing CHO cells (Homo sapiens, UniProt O75762)
T1 construct: expressed in transfected cells; host or cells: CHO cells (under G-418 selection)
Assay: 45Calcium uptake assay: inhibition of AITC induced cellular uptake of radioactive calcium
Assay type: cell-based
Details: AITC 30 μM; for inhibition at 1 µM: 1.0 μM test compound, read-out: Percentage inhibition at 1.0 μM; for inhibition at 1 µM / inhibition at 10 µM / IC50: human TRPA1 CHO cells; for inhibition at 10 µM: 10.0 μM test compound, read-out: Percentage inhibition at 10.0 μM; for IC50: read-out: IC50 value (range)
Experimental: The illustrative examples of the present invention are screened for TRPA1 activity according to a modified procedure described in (a) Tóth, A. et al. Life Sciences (2003), 73, 487-498. ([…]. et al. Proc. Natl. Acad. Sci. U.S.A., (2007), 104, 13525-13530. The screening of the compounds can be carried out by other methods and procedures known to persons skilled in the art. Screening for TRPA1 Antagonist Using the ^45Calcium Uptake Assay The inhibition of TRPA1 receptor activation was measured as inhibition of allyl isothiocyanate (AITC) induced cellular uptake of radioactive calcium. […] Final concentration of DMSO in the reaction was 0.5% (v/v). […] Cells were seeded 24 h prior to the assay in 96 well plates so as to get 50,000 cells per well on the day of experiment. Cells were treated with test compounds for 10 min followed by addition of AITC at a final concentration of 30 μM and 5 μCi/ml ^45Ca^+2 for 3 min. […] Radioactivity in the lysate was measured in Packard Top count after addition of liquid scintillant. Concentration response curves were plotted as a % of maximal response obtained in the absence of test antagonist. IC50 value was calculated from concentration response curve by nonlinear regression analysis using GraphPad PRISM software.

T1 sequence (O75762 whole entry): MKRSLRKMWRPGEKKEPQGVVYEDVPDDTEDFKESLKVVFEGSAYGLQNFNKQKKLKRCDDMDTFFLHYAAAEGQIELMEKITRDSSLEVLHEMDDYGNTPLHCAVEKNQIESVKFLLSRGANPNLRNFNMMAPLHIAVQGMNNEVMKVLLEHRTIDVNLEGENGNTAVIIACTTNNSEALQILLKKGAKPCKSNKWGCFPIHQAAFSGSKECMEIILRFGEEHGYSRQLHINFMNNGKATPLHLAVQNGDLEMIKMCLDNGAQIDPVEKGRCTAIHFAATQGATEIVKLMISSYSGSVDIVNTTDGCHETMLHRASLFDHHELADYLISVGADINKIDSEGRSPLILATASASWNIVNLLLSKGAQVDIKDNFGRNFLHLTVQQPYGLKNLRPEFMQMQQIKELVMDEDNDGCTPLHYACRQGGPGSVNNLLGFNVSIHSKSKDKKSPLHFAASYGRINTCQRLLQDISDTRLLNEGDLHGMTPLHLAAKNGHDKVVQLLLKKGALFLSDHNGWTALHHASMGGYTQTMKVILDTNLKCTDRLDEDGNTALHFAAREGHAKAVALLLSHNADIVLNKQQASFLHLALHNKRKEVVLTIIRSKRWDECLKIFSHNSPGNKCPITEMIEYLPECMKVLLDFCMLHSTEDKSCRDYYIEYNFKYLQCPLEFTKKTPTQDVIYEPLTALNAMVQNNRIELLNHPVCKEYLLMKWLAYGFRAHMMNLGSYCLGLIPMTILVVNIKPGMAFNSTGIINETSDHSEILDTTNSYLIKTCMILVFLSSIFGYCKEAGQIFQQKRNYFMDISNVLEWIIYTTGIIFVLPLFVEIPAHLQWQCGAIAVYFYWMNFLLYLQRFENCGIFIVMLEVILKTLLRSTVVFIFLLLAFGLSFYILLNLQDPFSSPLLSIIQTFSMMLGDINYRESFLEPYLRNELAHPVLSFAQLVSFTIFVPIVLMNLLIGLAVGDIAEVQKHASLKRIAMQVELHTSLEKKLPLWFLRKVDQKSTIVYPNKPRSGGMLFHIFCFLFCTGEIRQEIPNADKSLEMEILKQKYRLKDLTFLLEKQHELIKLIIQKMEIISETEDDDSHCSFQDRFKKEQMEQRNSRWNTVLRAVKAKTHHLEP

| inhibition at 1 µM | inhibition at 10 µM | IC50 | inhibition at 3 µM (CHO, 3 μM test compound (printed in the 10.0 μM column), read-out: Percentage inhibition (3 μM)) | Structure (SMILES) |
| --- | --- | --- | --- | --- |
| 97.1% | 99.6% | 50.1 to 100 nM |  | Cn1c(=O)c2c(CC(=O)Nc3ccn(-c4cccc(C(F)(F)F)c4)n3)cccc2n(C)c1=O [Example 81, N1-[1-(3-Trifluoromethylphenyl)-1H-3-pyrazolyl]-2-(1,3-dimethyl-2,4-dioxo-1,2,3,4-tetrahydro-5-quinazolinyl)acetamide] |
| 71.3% | 88.2% |  |  | Cn1c(=O)c2c(CC(=O)Nc3cccc(-c4ccc(C(F)(F)F)cc4)n3)cccc2n(C)c1=O [Example 6, N1-[6-(4-Trifluoromethylphenyl)-2-pyridyl]-2-(1,3-dimethyl-2,4-dioxo-1,2,3,4-tetrahydro-5-quinazolinyl)acetamide] |
| 17.2% | 29.6% |  |  | Cn1c(=O)n(CC2CC2)c(=O)c2c(CC(=O)Nc3nc(-c4ccc(C(C)(C)C)cc4)cs3)cccc21 [Example 27, N1-[4-(4-tert-Butylphenyl)-1,3-thiazol-2-yl]-2-(1-methyl-3-cyclopropylmethyl-2,4-dioxo-1,2,3,4-tetrahydro-5-quinazolinyl)acetamide] |
| 50.4% | 79.8% |  |  | Cn1c(=O)c2c(CC(=O)Nc3nc(-c4c(F)cccc4F)cs3)cccc2n(C)c1=O [Example 33, N1-[4-(2,6-Difluorophenyl)-1,3-thiazol-2-yl]-2-(1,3-dimethyl-2,4-dioxo-1,2,3,4-tetrahydro-5-quinazolinyl)acetamide] |
| 25.3% | 50.8% |  |  | Cn1c(=O)c2c(CC(=O)Nc3ccc(-c4ccc(Br)cc4)cc3)cccc2n(C)c1=O [Example 2, N1-[4-(4-Bromophenyl)phenyl]-2-(1,3-dimethyl-2,4-dioxo-1,2,3,4-tetrahydro-5-quinazolinyl)acetamide] |
| 96.3% | 100% | 50.1 to 100 nM |  | Cn1c(=O)c2c(CC(=O)Nc3nc(-c4cc(Cl)cc(Cl)c4)cs3)cccc2n(C)c1=O [Example 48, N1-[4-(3,5-Dichlorophenyl)-1,3-thiazol-2-yl]-2-(1,3-dimethyl-2,4-dioxo-1,2,3,4-tetrahydro-5-quinazolinyl)acetamide] |
| 52.2% | 71.5% |  |  | Cn1c(=O)c2c(CC(=O)Nc3ccc(-c4ccc(Cl)cc4)cn3)cccc2n(C)c1=O [Example 5, N1-[5-(4-chlorophenyl)-2-pyridyl]-2-(1,3-dimethyl-2,4-dioxo-1,2,3,4-tetrahydro-5-quinazolinyl)acetamide] |
| 53.7% | 66.3% |  |  | Cn1c(=O)c2c(CC(=O)Nc3nc(-c4ccc(F)c(F)c4)cs3)cccc2n(C)c1=O [Example 32, N1-[4-(3,4-Difluorophenyl)-1,3-thiazol-2-yl]-2-(1,3-dimethyl-2,4-dioxo-1,2,3,4-tetrahydro-5-quinazolinyl)acetamide] |
| 97.9% | 99.1% | < 50 nM |  | Cn1c(=O)c2c(CC(=O)Nc3nc(-c4ccc(C(F)(F)F)cc4)cs3)cccc2n(C)c1=O [Example 14, N1-[4-(4-Trifluromethylphenyl)-1,3-thiazol-2yl]-2-(1,3-dimethyl-2,4-dioxo-1,2,3,4-tetrahydro-5-quinazolinyl)acetamide] |
| 84.6% | 98.6% | > 100 nM |  | Cn1c(=O)c2c(CC(=O)Nc3nc(-c4c(F)ccc(C(F)(F)F)c4F)cs3)cccc2n(C)c1=O [Example 68, N1-{4-[2,6-Difluoro-3-trifluoromethylphenyl]-1,3-thiazol-2-yl}-2-(1,3-dimethyl-2,4-dioxo-1,2,3,4-tetrahydro-5-quinazolinyl)acetamide] |
| 5.49% | 3.46% |  |  | Cn1c(=O)c2c(CC(=O)Nc3nnc(-c4ccc(Br)cc4)s3)cccc2n(C)c1=O [Example 83, N1-[5-(4-Bromophenyl)-1,3,4-thadiazol-2-yl]-2-(1,3-dimethyl-2,4-dioxo-1,2,3,4-tetrahydro-5-quinazolinyl)acetamide] |
| 79.3% | 88.3% | < 50 nM |  | Cn1c(=O)c2c(CC(=O)Nc3nc(-c4ccc(C5CCCCC5)cc4)cs3)cccc2n(C)c1=O [Example 18, N1-[4-(4-Cyclohexylphenyl)-1,3-thiazol-2yl]-2-(1,3-dimethyl-2,4-dioxo-1,2,3,4-tetrahydro-5-quinazolinyl)acetamide] |
| 46.2% | 99.2% |  |  | Cn1c(=O)c2c(CC(=O)Nc3nc(-c4ccc(OC(F)F)c(F)c4)cs3)cccc2n(C)c1=O [Example 44, N1-[4-(4-Difluoromethoxyl-3-fluorophenyl)-1,3-thiazol-2-yl]-2-(1,3-dimethyl-2,4-dioxo-1,2,3,4-tetrahydro-5-quinazolinyl)acetamide] |
| 96.3% | 97.7% | > 100 nM |  | Cn1c(=O)c2c(CC(=O)Nc3nc(-c4cn(C)c5ccccc45)cs3)cccc2n(C)c1=O [Example 74] |
| 97.2% | 99.7% | 50.1 to 100 nM |  | Cn1c(=O)c2c(CC(=O)Nc3ccn(-c4ccc(Cl)cc4)n3)cccc2n(C)c1=O [Example 80, N1-[1-(4-Chlorophenyl)-1H,3-pyrazolyl]-2-(1,3-dimethyl-2,4-dioxo-1,2,3,4-tetrahydro-5-quinazolinyl)acetamide] |
| 98.3% | 99% | 50.1 to 100 nM |  | Cn1c(=O)c2c(CC(=O)Nc3nc(-c4ccc(F)c(OC(F)(F)F)c4)cs3)cccc2n(C)c1=O [Example 42] |
| 98.6% | 99% | 50.1 to 100 nM |  | Cn1c(=O)c2c(CC(=O)Nc3nc(-c4ccc(F)c(Cl)c4)cs3)cccc2n(C)c1=O [Example 49, N1-[4-(3-Chloro-4-fluorophenyl)-1,3-thiazol-2-yl]-2-(1,3-dimethyl-2,4-dioxo-1,2,3,4-tetrahydro-5-quinazolinyl)acetamide] |
| 2.8% | 6.54% |  |  | CCOC(=O)n1c(=O)[nH]c2cccc(CC(=O)Nc3nc(-c4ccc(Cl)cc4)cs3)c2c1=O [Example 28] |
| 97.8% |  | < 50 nM | 99.5% | Cn1c(=O)c2c(CC(=O)Nc3nc(-c4ccc(F)c(C(F)(F)F)c4F)cs3)cccc2n(C)c1=O [Example 67, N1-{4-[2,4-Difluoro-3-trifluoromethylphenyl]-1,3-thiazol-2-yl}-2-(1,3-dimethyl-2,4-dioxo-1,2,3,4-tetrahydro-5-quinazolinyl)acetamide] |
| 3.81% | 8.12% |  |  | Cn1c(=O)c2c(CC(=O)Nc3cc(-c4ccc(Cl)cc4)n[nH]3)cccc2n(C)c1=O [Example 79, N1-[3-(4-Chlorophenyl)-1H,5-pyrazolyl]-2-(1,3-dimethyl-2,4-dioxo-1,2,3,4-tetrahydro-5-quinazolinyl)acetamide] |
| 25% | 60.4% |  |  | Cn1c(=O)n(CC2CC2)c(=O)c2c(CC(=O)Nc3nc(-c4ccc(C(F)(F)F)c(F)c4)cs3)cccc21 [Example 61, N1-[4-(3-Fluoro-4-trifluoromethylphenyl)-1,3-thiazol-2-yl]-2-(1-methyl-3-cyclopropyl-methyl-2,4-dioxo-1,2,3,4-tetrahydro-5-quinazolinyl)acetamide] |
| 76.7% | 90.7% | > 100 nM |  | Cn1c(=O)c2c(CC(=O)Nc3ccn(-c4ccc(Cl)cc4F)n3)cccc2n(C)c1=O [Example 82, N1-[1-(4-Chloro-2-Fluorophenyl)-1H-3-pyrazolyl]-2-(1,3-dimethyl-2,4-dioxo-1,2,3,4-tetrahydro-5-quinazolinyl)acetamide] |
| 98.5% | 98.7% | < 50 nM |  | Cn1c(=O)c2c(CC(=O)Nc3nc(-c4ccc(F)c(C(F)(F)F)c4)cs3)cccc2n(C)c1=O [Example 38, N1-[4-(4-Fluoro-3-trifluoromethylphenyl)-1,3-thiazol-2-yl]-2-(1,3-dimethyl-2,4-dioxo-1,2,3,4-tetrahydro-5-quinazolinyl)acetamide] |
| 95.7% | 99.7% | < 50 nM |  | CC(C)Cc1ccc(-c2csc(NC(=O)Cc3cccc4c3c(=O)n(C)c(=O)n4C)n2)cc1 [Example 21] |
| 74.4% | 99.7% | < 50 nM |  | Cn1c(=O)c2c(CC(=O)Nc3nc(-c4ccc(OC(F)(F)F)c(F)c4)cs3)cccc2n(C)c1=O [Example 41] |
| 95.3% | 98.9% | 50.1 to 100 nM |  | Cn1c(=O)c2c(CC(=O)Nc3nc(-c4cccc(Cl)c4F)cs3)cccc2n(C)c1=O [Example 50, N1-[4-(3-Chloro-2-fluorophenyl)-1,3-thiazol-2-yl]-2-(1,3-dimethyl-2,4-dioxo-1,2,3,4-tetrahydro-5-quinazolinyl)acetamide] |
| 99.4% | 99.6% | < 50 nM |  | Cn1c(=O)c2c(CC(=O)Nc3nc(-c4ccc(C(F)(F)F)c(F)c4F)cs3)cccc2n(C)c1=O [Example 65, N1-[4-(2,3-Difluoro-4-trifluormethylphenyl)-1,3-thiazol-2-yl]-2-(1,3-dimethyl-2,4-dioxo-1,2,3,4-tetrahydro-5-quinazolinyl)acetamide] |
